These results are taken from publication PMC12075751 (Nature Communications, 2025).

Data set [1] deals with PINP. The experiment in a line: ELISA of serum PINP, OVX mice, oral gavage study. The format is in vivo, mouse. As to conditions: vs Model. On the technique in general: ELISA stands for enzyme-linked immunosorbent assay.
The subject of data set [2] is FABP4. The experiment in a line: ELISA of serum FABP4, OVX mice, oral gavage study. The format is in vivo, mouse. As to conditions: 28 days daily oral gavage, ALD […], BMS 10 mg/kg.
Data set [3] concerns OVX mice. The experiment in a line: H&E staining of bone marrow adipose tissue, OVX mice, oral gavage study. The class given is in vivo, mouse. As to conditions: BMS vs ALD.
The test system of data set [4] is CTX-1. The experiment in a line: ELISA of serum CTX-1, OVX mice, oral gavage study. The format is in vivo, mouse.
The test system of data set [5] is FABP4. The experiment in a line: IHC of FABP4 in tibial bone marrow, OVX mice, oral gavage study. The class given is in vivo, mouse. To be noted: BMS vs ALD.
A short description of data set [6]: PK analysis in SD rats. The format is in vivo, rat.
In data set [7] the test system is human BMSCs. The experiment in a line: Osteoblastic differentiation of BMSCs, Alizarin Red staining. To be noted: FABP4 25 or 50 ng/mL, with BMS 5 or 10 μM, 21-day induction. The class given is cell-based.
Data set [8] has as its system OVX mice. The format is in vivo, mouse. As to conditions: BMS 10 mg/kg oral.
For data set [9], the system named is OVX mice. The format is in vivo, mouse. To be noted: BMS 10 mg/kg oral. This is another data set of the same source.
For data set [10], the system named is OVX mice. The format is in vivo, mouse.
Data set [11] deals with OVX mice. The experiment in a line: Three-point bending test on femoral midshaft, OVX mice, oral gavage study. The format is in vivo, mouse. As to conditions: oral administration of BMS.
For data set [12], the system named is TRAP, c-Fos, NFATc1. The experiment in a line: Western Blotting of OCs differentiation marker proteins. The class given is cell-based, mouse. As to conditions: OCs + BMS.
Data set [13] deals with intracellular Ca2+ in OCs. The experiment in a line: Ca2+ concentration detection in OCs. The format is cell-based, mouse. As to conditions: OCs + FABP4 (25 ng/mL).
In data set [14] the test system is BMMs. The experiment in a line: OCs formation from BMMs. The format is cell-based, mouse. To be noted: 25 ng/mL FABP4 during RANKL induction of BMMs.
The test system of data set [15] is OCs. The experiment in a line: F-actin staining of OCs. The class given is cell-based, mouse. To be noted: vs group with only RANKL and M-CSF.
For data set [16], the system named is OCs. The experiment in a line: Bone resorption activity of mature OCs on bovine bone slices. The format is cell-based, mouse. To be noted: SEM.
[17] abbreviates: OVX mice, BMS 10 mg/kg oral, 28 days.

For `NCCCC(O)(P(=O)(O)O)P(=O)(O)O` [ALD, alendronate sodium], the “bone formation (serum PINP)” value in data set [1] is reported as “little effect”. Moreover, the “serum FABP4 levels vs Model group” value in data set [2] is “significantly reduced”. Besides, the “bone marrow fat tissue (H&E staining)” value in data set [3] is “no significant difference”. Moreover, the “bone resorption (serum CTX-1)” value in data set [4] is “reduced”. Further, the “FABP4 protein expression in bone marrow (IHC)” value in data set [5] was “no significant difference”.
Usually Vz stands for a proportionality between amount in the body and measured concentration, not a real space. Read a low Vz as little distribution into tissue. As usually defined, the Cmax is the peak of the concentration-time curve. What is called AUC(0-t) is the area under the concentration-time curve up to a stated or last time point. A high value points to high exposure. Take `CCc1c(-c2ccccc2)c(-c2ccccc2)nn1-c1ccccc1-c1cccc(OCC(=O)O)c1` [BMS309403]: in data set [6] (IV 2.0 mg/kg, G1-Mean (n = 3)), the Cl was 11.523 mL/min/kg, the “MRT(0-∞)” value was 0.84 h and the Vz is 1.73416 L/kg. In data set [6] (IV 2.0 mg/kg, G1-Mean (n = 3), listed as BMS, 2 mg/kg), this molecule came in with a Cmax of 7094.95 ng/mL. In addition, in data set [6] (PO 10.0 mg/kg, G2-Mean (n = 3)), the “AUC(0-t)” value is 5527.36 ng·h/mL. In data set [6] (PO 10.0 mg/kg, G2-Mean (n = 3), listed as BMS, 10 mg/kg), this molecule showed a T1/2 of 3.16 h. In data set [7], the “osteogenic differentiation capacity of BMSCs (Alizarin Red staining)” value is listed as “neither the FABP4 protein nor its inhibitor affected”. Moreover, the “bone resorption in vivo (TRAP staining of tibia sections)” value in [8] is given as “inhibitory effect”. In addition, in data set [9], the “BMD, L5 lumbar vertebra” value is recorded as “significantly improving”; the “Tb.N, L5 lumbar vertebra” value is “significantly improving”; the “Tb.Th, L5 lumbar vertebra” value was “significantly improving”; the “bone volume/total volume (BV/TV), L5 lumbar vertebra” value is on record as “significantly improving”. In [9], the “trabecular separation (Tb.Sp), L5 lumbar vertebra” value is on record as “significantly improving”. For the same molecule, in [10] (BMS 10 mg/kg, 7.7 times the ALD dose ([…]), oral), the “efficacy in femur compared to ALD” value was “did not achieve the same efficacy”. In data set [10] (setting [17]), the “femoral BMD” value is “increased” and the “trabecular thickness (Tb.Th), distal femur” value is reported as “increased”. Moreover, the “trabecular number (Tb.N), distal femur” value in data set [10] (OVX mice, BMS 10 mg/kg oral, 28 days, listed as BMS) is “increased”. In addition, in [4], the “bone resorption (serum CTX-1)” value is listed as “reduced”. Further, in data set [11], the “bone stiffness, femoral midshaft” value was “improved” and the “elastic modulus, femoral midshaft” value is “improved”. Further, the “TRAP, c-Fos, and NFATc1 protein levels” value in [12] is on record as “suppression”.

B1: FABP4: recombinant FABP4 protein (MCE, cat#HY-P70293) (protein, UniProt P04117 2-132, looked up)
Fatty acid-binding protein, …: CDAFVGTWKLVSSENFDDYMKEVGVGFATRKVAGMAKPNMIISVNGDLVTIRSESTFKNTEISFKLGVEFDEITADDRKVKSIITLDGGALVQVQKWDGKSTTIKRKRDGDKLVVECVMKGVTSTRVYERA
B1: in data set [13], the “intracellular calcium levels in OCs” value is reported as “significant increase”. Further, the “osteogenic differentiation capacity of BMSCs (Alizarin Red staining)” value in data set [7] was “neither the FABP4 protein nor its inhibitor affected”. Further, in data set [14], the “formation of OCs (TRAP staining)” value is listed as “significantly promoted the formation of OCs”. In addition, in data set [15], the “F-actin / bone skeleton structure of OCs” value was “more regular and distinct bone skeleton structure with abundant F-actin”. In addition, in [16], the “bone resorption by mature OCs on bovine bone slices” value is “enhanced bone resorption”.
